Experimental data: patent US10519152B2, “Compounds and their use in treating cancer” (AstraZeneca AB, priority 2017, dated 2019)

How the values were obtained:
[1] = molecular target: T1, Estrogen Receptor (ERα) in MCF-7 human ductal carcinoma breast cell line (Homo sapiens, UniProt P03372); test: MCF-7 ER degradation assay (cell based immuno-fluorescence); conditions: MCF-7 cells, 18-22 hours incubation, 50% reduction of ERα expression; single experiment or average of two or more; read-out: MCF-7 ER degradation IC50
T1 construct: endogenous in cells; host or cells: MCF-7
T1 sequence (P03372 1-595): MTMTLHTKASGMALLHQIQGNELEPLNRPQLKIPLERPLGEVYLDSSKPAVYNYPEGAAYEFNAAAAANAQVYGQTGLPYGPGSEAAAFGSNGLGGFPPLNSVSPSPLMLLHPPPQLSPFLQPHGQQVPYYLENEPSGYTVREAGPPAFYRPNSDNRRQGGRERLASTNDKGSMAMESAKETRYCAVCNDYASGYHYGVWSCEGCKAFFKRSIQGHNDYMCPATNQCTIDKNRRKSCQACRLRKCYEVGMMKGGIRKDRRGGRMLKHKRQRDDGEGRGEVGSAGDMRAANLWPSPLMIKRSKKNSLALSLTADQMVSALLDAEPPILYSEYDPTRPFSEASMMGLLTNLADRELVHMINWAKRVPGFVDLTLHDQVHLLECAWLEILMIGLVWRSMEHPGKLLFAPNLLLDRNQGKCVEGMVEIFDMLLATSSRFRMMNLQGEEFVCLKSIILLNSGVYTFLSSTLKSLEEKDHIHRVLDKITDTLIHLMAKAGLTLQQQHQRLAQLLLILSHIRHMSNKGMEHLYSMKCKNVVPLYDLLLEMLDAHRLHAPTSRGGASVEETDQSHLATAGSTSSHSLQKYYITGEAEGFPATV
Summary of the method: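 MCF-7 human ductal carcinoma breast cells were seeded at 3.75×10^4 cells per mL (40 μL per well) in 384 well plates with phenol red free DMEM containing 2 mM L-Glutamine and 5% (v/v) Charcoal/Dextran treated foetal calf serum. After overnight culture, compounds were acoustically dispensed, incubated 18-22 hours, then cells were formaldehyde-fixed and immunostained for ERα.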

[2] = molecular target: T2, recombinant human Estrogen Receptor alpha ligand binding domain, residues 307-554 (ER alpha-LBD (GST)) (Homo sapiens, UniProt P03372); test: ERα binding assay (LanthaScreen TR-FRET competition); conditions: TR-FRET competition with Fluormone ES2 tracer, 4 hours at room temperature; single experiment or average of two or more
T2 construct: made in house
T2 sequence (P03372 307-554): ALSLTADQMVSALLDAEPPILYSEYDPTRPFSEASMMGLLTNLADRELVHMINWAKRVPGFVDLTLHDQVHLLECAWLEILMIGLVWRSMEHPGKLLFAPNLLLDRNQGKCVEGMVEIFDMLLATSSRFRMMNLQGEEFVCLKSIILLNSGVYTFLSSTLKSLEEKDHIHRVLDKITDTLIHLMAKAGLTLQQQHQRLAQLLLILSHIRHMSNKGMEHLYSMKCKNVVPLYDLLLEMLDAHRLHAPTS

| Compound | DC50 [1] | IC50 [2] |
| --- | --- | --- |
| Cc1ncsc1-c1ccc(CNC(=O)[C@@H]2C[C@@H](O)CN2C(=O)[C@@H](NC(=O)CCN2CCN(CCCCOc3cc(F)c([C@@H]4c5[nH]c6ccccc6c5C[C@@H](C)N4CC(C)(C)F)c(F)c3)CC2)C(C)(C)C)cc1 [Example 98, (2S,4R)-1-((S)-2-(3-(4-(4-(3,5-Difluoro-4-((1R,3R)-2-(2-fluoro-2-methylpropyl)-3-methyl-2,3,4,9-tetrahydro-1H-pyrido[3,4-b]indol-1-yl)phenoxy)butyl)piperazin-1-yl)propanamido)-3,3-dimethylbutanoyl)-4-hydroxy-N-(4-(4-methylthiazol-5-yl)benzyl)pyrrolidine-2-carboxamide] | 0.4 nM | 0.6 nM |
| Cc1ncsc1-c1ccc(CNC(=O)[C@@H]2C[C@@H](O)CN2C(=O)[C@@H](NC(=O)CCCCN2CCN(CCOc3cc(F)c([C@@H]4c5[nH]c6ccccc6c5C[C@@H](C)N4CC(C)(C)F)c(F)c3)CC2)C(C)(C)C)cc1 [Example 102, (2S,4R)-1-((S)-2-(5-(4-(2-(3,5-difluoro-4-((1R,3R)-2-(2-fluoro-2-methylpropyl)-3-methyl-2,3,4,9-tetrahydro-1H-pyrido[3,4-b]indol-1-yl)phenoxy)ethyl)piperazin-1-yl)pentanamido)-3,3-dimethylbutanoyl)-4-hydroxy-N-(4-(4-methylthiazol-5-yl)benzyl)pyrrolidine-2-carboxamide] | 0.9 nM | 0.6 nM |
| Cc1ncsc1-c1ccc([C@H](CN(C)C)NC(=O)[C@@H]2C[C@@H](O)CN2C(=O)[C@@H](NC(=O)COCCOCCOCCOc2cc(F)c([C@@H]3c4[nH]c5ccccc5c4C[C@@H](C)N3CC(C)(C)F)c(F)c2)C(C)(C)C)cc1 [Example 104, (2S,4R)-1-[(2S)-2-[[2-[2-[2-[2-[3,5-Difluoro-4-[(1R,3R)-2-(2-fluoro-2-methyl-propyl)-3-methyl-1,3,4,9-tetrahydropyrido[3,4-b]indol-1-yl]phenoxy]ethoxy]ethoxy]ethoxy]acetyl]amino]-3,3-dimethyl-butanoyl]-N-[(1R)-2-(dimethylamino)-1-[4-(4-methylthiazol-5-yl)phenyl]ethyl]-4-hydroxy-pyrrolidine-2-carboxamide] | 54 nM | 4.6 nM |
| Cc1ncsc1-c1ccc(CNC(=O)[C@@H]2C[C@@H](O)CN2C(=O)[C@@H](NC(=O)CCCCN(C)CCN(C)CCOc2cc(F)c([C@@H]3c4[nH]c5ccccc5c4C[C@@H](C)N3CC(C)(C)F)c(F)c2)C(C)(C)C)cc1 [Example 108, (2S,4R)-1-((S)-2-(5-((2-((2-(3,5-difluoro-4-((1R,3R)-2-(2-fluoro-2-methylpropyl)-3-methyl-2,3,4,9-tetrahydro-1H-pyrido[3,4-b]indol-1-yl)phenoxy)ethyl)(methyl)amino)ethyl)(methyl)amino)pentanamido)-3,3-dimethylbutanoyl)-4-hydroxy-N-(4-(4-methylthiazol-5-yl)benzyl)pyrrolidine-2-carboxamide] | 1.1 nM | 0.6 nM |
| Cc1ncsc1-c1ccc(CNC(=O)[C@@H]2C[C@@H](O)CN2C(=O)[C@@H](NC(=O)C(C)(C)OCCCCCCOc2cc(F)c([C@@H]3c4[nH]c5ccccc5c4C[C@@H](C)N3CC(C)(C)F)c(F)c2)C(C)(C)C)cc1 [Example 117, (2S,4R)-1-((S)-2-(2-((6-(3,5-Difluoro-4-((1R,3R)-2-(2-fluoro-2-methylpropyl)-3-methyl-2,3,4,9-tetrahydro-1H-pyrido[3,4-b]indol-1-yl)phenoxy)hexyl)oxy)-2-methylpropanamido)-3,3-dimethylbutanoyl)-4-hydroxy-N-(4-(4-methylthiazol-5-yl)benzyl)pyrrolidine-2-carboxamide] | 22 nM | 0.8 nM |
| Cc1ncsc1-c1ccc(CNC(=O)[C@@H]2C[C@@H](O)CN2C(=O)[C@@H](NC(=O)COCc2cccnc2COc2cc(F)c([C@@H]3c4[nH]c5ccccc5c4C[C@@H](C)N3CC(C)(C)F)c(F)c2)C(C)(C)C)cc1 [Example 133, (2S,4R)-1-((S)-2-(2-((2-((3,5-Difluoro-4-((1R,3R)-2-(2-fluoro-2-methylpropyl)-3-methyl-2,3,4,9-tetrahydro-1H-pyrido[3,4-b]indol-1-yl)phenoxy)methyl)pyridin-3-yl)methoxy)acetamido)-3,3-dimethylbutanoyl)-4-hydroxy-N-(4-(4-methylthiazol-5-yl)benzyl)pyrrolidine-2-carboxamide] | 0.8 nM | 0.7 nM |
| Cc1ncsc1-c1ccc(CNC(=O)[C@@H]2C[C@@H](O)CN2C(=O)[C@@H](NC(=O)CCCCCNCCCCOc2cc(F)c([C@@H]3c4[nH]c5ccccc5c4C[C@@H](C)N3CC(C)(C)F)c(F)c2)C(C)(C)C)cc1 [Example 145, (2S,4R)-1-((S)-2-(6-((4-(3,5-Difluoro-4-((1R,3R)-2-(2-fluoro-2-methylpropyl)-3-methyl-2,3,4,9-tetrahydro-1H-pyrido[3,4-b]indol-1-yl)phenoxy)butyl)amino)hexanamido)-3,3-dimethylbutanoyl)-4-hydroxy-N-(4-(4-methylthiazol-5-yl)benzyl)pyrrolidine-2-carboxamide] | 2.7 nM | 1.1 nM |
| Cc1ncsc1-c1ccc(CNC(=O)[C@@H]2C[C@@H](O)CN2C(=O)[C@@H](NC(=O)CCCNCCCCCCOc2cc(F)c([C@@H]3c4[nH]c5ccccc5c4C[C@@H](C)N3CC(C)(C)F)c(F)c2)C(C)(C)C)cc1 [Example 151, (2S,4R)-1-((S)-2-(4-((6-(3,5-Difluoro-4-((1R,3R)-2-(2-fluoro-2-methylpropyl)-3-methyl-2,3,4,9-tetrahydro-1H-pyrido[3,4-b]indol-1-yl)phenoxy)hexyl)amino)butanamido)-3,3-dimethylbutanoyl)-4-hydroxy-N-(4-(4-methylthiazol-5-yl)benzyl)pyrrolidine-2-carboxamide] | 54 nM | 3.6 nM |
| Cc1ncsc1-c1ccc([C@H](C)NC(=O)[C@@H]2C[C@@H](O)CN2C(=O)[C@@H](NC(=O)COCCCOCCCCOc2cc(F)c([C@@H]3c4[nH]c5ccccc5c4C[C@@H](C)N3CC(C)(C)F)c(F)c2)C(C)(C)C)cc1 [Example 155, (2S,4R)-1-((S)-2-(2-(3-(4-(3,5-Difluoro-4-((1R,3R)-2-(2-fluoro-2-methylpropyl)-3-methyl-2,3,4,9-tetrahydro-1H-pyrido[3,4-b]indol-1-yl)phenoxy)butoxy)propoxy)acetamido)-3,3-dimethylbutanoyl)-4-hydroxy-N—((S)-1-(4-(4-methylthiazol-5-yl)phenyl)ethyl)pyrrolidine-2-carboxamide] | 0.7 nM | 0.3 nM |
